Values after ≈ are worked out from the molar mass of the structure shown. Active and inactive are the calls of the source. The calls are words filed in the database; no cut-off is given here.
Legend:
Type in all cases: functional
Candida albicans = assay: Antifungal activity against Candida albicans assessed as growth inhibition by serial plate dilution method
Bacillus cereus = assay: Antibacterial activity against Bacillus cereus assessed as growth inhibition by serial plate dilution method
Pseudomonas aeruginosa = assay: Antibacterial activity against Pseudomonas aeruginosa ATCC 27853 assessed as growth inhibition by serial plate dilution method
Staphylococcus aureus = assay: Antibacterial activity against Staphylococcus aureus ATCC 25923 assessed as growth inhibition by serial plate dilution method
Escherichia coli = assay: Antibacterial activity against Escherichia coli ATCC 25922 assessed as growth inhibition by serial plate dilution method
Mus musculus [1] = assay: Analgesic activity in Mus musculus […] albino (mouse) assessed as time taken to tail withdrawl at 100 mg/kg, po administered through intragastric tube after 180 min by tail flick test (reference value: 1.363 +/- 0.1297 secs)
Mus musculus [2] = assay: Analgesic activity in Mus musculus […] albino (mouse) assessed as time taken to tail withdrawl at 100 mg/kg, po administered through intragastric tube after 120 min by tail flick test (reference value: 1.363 +/- 0.1297 secs)
Mus musculus [3] = assay: Analgesic activity in Mus musculus […] albino (mouse) assessed as time taken to tail withdrawl at 100 mg/kg, po administered through intragastric tube after 60 min by tail flick test (reference value: 1.363 +/- 0.1297 secs)
Rattus norvegicus [4] = assay: Anti-inflammatory activity in Rattus norvegicus (rat) assessed as decrease in carrageenan-induced paw edema at 100 mg/kg, po administered 30 min prior to carrageenan challenge measured after 180 min (reference value: 2.275 +/- 0.1181 mm)
Rattus norvegicus [5] = assay: Anti-inflammatory activity in Rattus norvegicus (rat) assessed as decrease in carrageenan-induced paw edema at 100 mg/kg, po administered 30 min prior to carrageenan challenge measured after 120 min (reference value: 2.375 +/- 0.1436 mm)
Rattus norvegicus [6] = assay: Anti-inflammatory activity in Rattus norvegicus (rat) assessed as decrease in carrageenan-induced paw edema at 100 mg/kg, po administered 30 min prior to carrageenan challenge measured after 60 min (reference value: 2.175 +/- 0.1797 mm)
[7] = tested on: Radical scavenging activity; assay: Antioxidant activity assessed as inhibition of DPPH radical generation at 800 ug/mL after 20 min by spectrophotometric analysis relative to control
[8] = tested on: Radical scavenging activity; assay: Antioxidant activity assessed as inhibition of DPPH radical generation at 400 ug/mL after 20 min by spectrophotometric analysis relative to control
[9] = tested on: Radical scavenging activity; assay: Antioxidant activity assessed as inhibition of DPPH radical generation at 200 ug/mL after 20 min by spectrophotometric analysis relative to control

| SMILES | MIC (Candida albicans) | MIC (Bacillus cereus) | MIC (Pseudomonas aeruginosa) | MIC (Staphylococcus aureus) | MIC (Escherichia coli) | Time (Mus musculus [1]) | Time (Mus musculus [2]) | Time (Mus musculus [3]) | Activity (Rattus norvegicus [4]) | Activity (Rattus norvegicus [5]) | Activity (Rattus norvegicus [6]) | inhibition [7] | inhibition [8] | inhibition [9] |
| --- | --- | --- | --- | --- | --- | --- | --- | --- | --- | --- | --- | --- | --- | --- |
| COc1ccc(Br)c(C(=O)N/N=C\c2ccc(O)cc2)c1 | 3.12 µg/mL (≈ 8.95 µM) | 6.25 µg/mL (≈ 17.9 µM) | 6.25 µg/mL (≈ 17.9 µM) | 12.5 µg/mL (≈ 35.8 µM) | 12.5 µg/mL (≈ 35.8 µM) | – | – | – | – | – | – | – | – | – |
| COc1ccc(Br)c(C(=O)NN2C(=O)CSC2c2ccc(Cl)cc2)c1 (stereo not given) | 12.5 µg/mL (≈ 28.3 µM) | 12.5 µg/mL (≈ 28.3 µM) | 3.12 µg/mL (≈ 7.07 µM) | 12.5 µg/mL (≈ 28.3 µM) | 12.5 µg/mL (≈ 28.3 µM) | 2.463 s | 2.788 s | 2.613 s | 2.25 mm | 2.25 mm | 2.15 mm | 58.2% | 58.2% | 57.5% |
| COc1ccc(Br)c(C(=O)NN2C(=O)CSC2c2ccccc2Cl)c1 (stereo not given) | 6.25 µg/mL (≈ 14.1 µM) | 6.25 µg/mL (≈ 14.1 µM) | 3.12 µg/mL (≈ 7.07 µM) | 6.25 µg/mL (≈ 14.1 µM) | 12.5 µg/mL (≈ 28.3 µM) | 2.5 s | 2.125 s | 1.963 s | 2.075 mm | 1.975 mm | 1.85 mm | 72.9% | 65.9% | 59.3% |
| COc1ccc(Br)c(C(=O)NN2C(=O)CSC2c2ccccc2)c1 (stereo not given) | 6.25 µg/mL (≈ 15.3 µM) | 25 µg/mL (≈ 61.4 µM) | 12.5 µg/mL (≈ 30.7 µM) | 25 µg/mL (≈ 61.4 µM) | 12.5 µg/mL (≈ 30.7 µM) | 2.425 s | 3.563 s | 3.675 s | 1.75 mm | 1.65 mm | 1.575 mm | 41.6% | 18.1% | 4.3% |
| COc1ccc(C2SCC(=O)N2NC(=O)c2cc(OC)ccc2Br)cc1 (stereo not given) | 6.25 µg/mL (≈ 14.3 µM) | 6.25 µg/mL (≈ 14.3 µM) | 6.25 µg/mL (≈ 14.3 µM) | 6.25 µg/mL (≈ 14.3 µM) | 12.5 µg/mL (≈ 28.6 µM) | 2.513 s | 2.575 s | 2.388 s | 1.875 mm | 1.75 mm | 1.6 mm | 59.5% | 58.2% | 57.5% |
| COc1ccc(Br)c(C(=O)NN2C(=O)CSC2c2ccc([N+](=O)[O-])cc2)c1 (stereo not given) | 6.25 µg/mL (≈ 13.8 µM) | 6.25 µg/mL (≈ 13.8 µM) | 12.5 µg/mL (≈ 27.6 µM) | 6.25 µg/mL (≈ 13.8 µM) | 6.25 µg/mL (≈ 13.8 µM) | 2.663 s | 3.263 s | 3.375 s | 1.975 mm | 1.8 mm | 1.45 mm | 13% | 5.81% | inactive |
| COc1ccc(/C=N\NC(=O)c2cc(OC)ccc2Br)cc1 | 6.25 µg/mL (≈ 17.2 µM) | 12.5 µg/mL (≈ 34.4 µM) | 3.12 µg/mL (≈ 8.6 µM) | 12.5 µg/mL (≈ 34.4 µM) | 12.5 µg/mL (≈ 34.4 µM) | – | – | – | – | – | – | – | – | – |
| COc1ccc(Br)c(C(=O)NN2C(=O)CSC2C2=C(Cl)c3ccccc3C(c3ccc(Cl)c(Cl)c3)C2)c1 (stereo not given) | 6.25 µg/mL (≈ 9.78 µM) | 12.5 µg/mL (≈ 19.6 µM) | 6.25 µg/mL (≈ 9.78 µM) | 6.25 µg/mL (≈ 9.78 µM) | 12.5 µg/mL (≈ 19.6 µM) | 2.338 s | 3.388 s | 3.463 s | 2.025 mm | 2.175 mm | 2.025 mm | – | – | – |
| COc1ccc(Br)c(C(=O)N/N=C\c2ccc(C)cc2)c1 | 6.25 µg/mL (≈ 18 µM) | 12.5 µg/mL (≈ 36 µM) | 12.5 µg/mL (≈ 36 µM) | 12.5 µg/mL (≈ 36 µM) | 6.25 µg/mL (≈ 18 µM) | – | – | – | – | – | – | – | – | – |
| COc1ccc(Br)c(C(=O)N/N=C\c2ccc([N+](=O)[O-])cc2)c1 | 3.12 µg/mL (≈ 8.26 µM) | 6.25 µg/mL (≈ 16.5 µM) | 6.25 µg/mL (≈ 16.5 µM) | 12.5 µg/mL (≈ 33.1 µM) | 6.25 µg/mL (≈ 16.5 µM) | – | – | – | – | – | – | – | – | – |
| COc1ccc(Br)c(C(=O)N/N=C\c2cccc3cc(OC)ccc23)c1 | 12.5 µg/mL (≈ 30.2 µM) | 6.25 µg/mL (≈ 15.1 µM) | 12.5 µg/mL (≈ 30.2 µM) | 6.25 µg/mL (≈ 15.1 µM) | 12.5 µg/mL (≈ 30.2 µM) | – | – | – | – | – | – | – | – | – |
| COc1ccc(Br)c(C(=O)N/N=C\c2ccc(F)cc2)c1 | 12.5 µg/mL (≈ 35.6 µM) | 6.25 µg/mL (≈ 17.8 µM) | 6.25 µg/mL (≈ 17.8 µM) | 6.25 µg/mL (≈ 17.8 µM) | 12.5 µg/mL (≈ 35.6 µM) | – | – | – | – | – | – | – | – | – |
| COc1ccc(Br)c(C(=O)N/N=C\c2ccc(-c3ccccc3)cc2)c1 | 12.5 µg/mL (≈ 30.5 µM) | 25 µg/mL (≈ 61.1 µM) | 6.25 µg/mL (≈ 15.3 µM) | 25 µg/mL (≈ 61.1 µM) | 25 µg/mL (≈ 61.1 µM) | – | – | – | – | – | – | – | – | – |
| O=C(O)Cc1ccccc1Nc1c(Cl)cccc1Cl [DICLOFENAC] | – | – | – | – | – | – | – | – | 0.625 mm | 0.625 mm | 0.6 mm | – | – | – |
| COc1ccc(Br)c(C(=O)N/N=C\c2ccccc2O)c1 | 6.25 µg/mL (≈ 17.9 µM) | 12.5 µg/mL (≈ 35.8 µM) | 6.25 µg/mL (≈ 17.9 µM) | 12.5 µg/mL (≈ 35.8 µM) | 6.25 µg/mL (≈ 17.9 µM) | – | – | – | – | – | – | – | – | – |
| COc1ccc(/C=N\NC(=O)c2cc(OC)ccc2Br)c(OC)c1 | 6.25 µg/mL (≈ 15.9 µM) | 12.5 µg/mL (≈ 31.8 µM) | 6.25 µg/mL (≈ 15.9 µM) | 12.5 µg/mL (≈ 31.8 µM) | 6.25 µg/mL (≈ 15.9 µM) | – | – | – | – | – | – | – | – | – |
| COc1ccc(Br)c(C(=O)N/N=C\c2cccnc2)c1 | 3.12 µg/mL (≈ 9.35 µM) | 6.25 µg/mL (≈ 18.7 µM) | 6.25 µg/mL (≈ 18.7 µM) | 6.25 µg/mL (≈ 18.7 µM) | 6.25 µg/mL (≈ 18.7 µM) | – | – | – | – | – | – | – | – | – |
| CC(C)=CCN1CC[C@]2(C)c3cc(O)ccc3C[C@H]1[C@H]2C [(+)-PENTAZOCINE] | – | – | – | – | – | 7.025 s | 6.863 s | 7.075 s | – | – | – | – | – | – |
| OC(Cn1cncn1)(Cn1cncn1)c1ccc(F)cc1F [FLUCONAZOLE] | 8 µg/mL (≈ 26.1 µM) | – | – | – | – | – | – | – | – | – | – | – | – | – |
| O=C1O[C@H]([C@@H](O)CO)C(O)=C1O | – | – | – | – | – | – | – | – | – | – | – | 96% | 95% | 87.6% |
| COc1ccc(Br)c(C(=O)N/N=C\c2ccc(Cl)cc2)c1 | 3.12 µg/mL (≈ 8.5 µM) | 12.5 µg/mL (≈ 34 µM) | 3.12 µg/mL (≈ 8.5 µM) | 6.25 µg/mL (≈ 17 µM) | 6.25 µg/mL (≈ 17 µM) | – | – | – | – | – | – | – | – | – |
| COc1ccc(Br)c(C(=O)N/N=C\c2ccccc2Cl)c1 | 6.25 µg/mL (≈ 17 µM) | 6.25 µg/mL (≈ 17 µM) | 6.25 µg/mL (≈ 17 µM) | 12.5 µg/mL (≈ 34 µM) | 6.25 µg/mL (≈ 17 µM) | – | – | – | – | – | – | – | – | – |
| COc1ccc(Br)c(C(=O)N/N=C/C2=C(Cl)c3ccccc3C(c3ccc(Cl)c(Cl)c3)C2)c1 (stereo not given) | 6.25 µg/mL (≈ 11.1 µM) | 12.5 µg/mL (≈ 22.1 µM) | 6.25 µg/mL (≈ 11.1 µM) | 12.5 µg/mL (≈ 22.1 µM) | 12.5 µg/mL (≈ 22.1 µM) | – | – | – | – | – | – | – | – | – |
| COc1ccc(Br)c(C(=O)N/N=C\c2ccccc2OC)c1 | 6.25 µg/mL (≈ 17.2 µM) | 12.5 µg/mL (≈ 34.4 µM) | 3.12 µg/mL (≈ 8.6 µM) | 6.25 µg/mL (≈ 17.2 µM) | 12.5 µg/mL (≈ 34.4 µM) | – | – | – | – | – | – | – | – | – |
| COc1ccc(Br)c(C(=O)N/N=C\c2ccc(O)c(OC)c2)c1 | 12.5 µg/mL (≈ 33 µM) | 6.25 µg/mL (≈ 16.5 µM) | 12.5 µg/mL (≈ 33 µM) | 12.5 µg/mL (≈ 33 µM) | 6.25 µg/mL (≈ 16.5 µM) | – | – | – | – | – | – | – | – | – |
| CC1(C)S[C@@H]2[C@H](NC(=O)Cc3ccccc3)C(=O)N2[C@H]1C(=O)O [PENICILLIN G] | – | 0.12 µg/mL (≈ 0.359 µM) | 0.12 µg/mL (≈ 0.359 µM) | 0.12 µg/mL (≈ 0.359 µM) | 0.12 µg/mL (≈ 0.359 µM) | – | – | – | – | – | – | – | – | – |
| COc1ccc(Br)c(C(=O)N/N=C\c2cccc(Cl)c2)c1 | 6.25 µg/mL (≈ 17 µM) | 12.5 µg/mL (≈ 34 µM) | 6.25 µg/mL (≈ 17 µM) | 25 µg/mL (≈ 68 µM) | 12.5 µg/mL (≈ 34 µM) | – | – | – | – | – | – | – | – | – |
